# Measurements reported in PubChem BioAssay AID212 (DTP/NCI, 2004).
# Several values for one entry are separate records, joined by “and”; a condition that tells them apart may be missing. Equal values may be shown once. Results filed as inconclusive are left out.
# Test system: BDF1 mice, colon carcinoma 38 sc, T/C %
# Assay: NCI In Vivo Anticancer Drug Screen. Data for tumor model Colon Carcinoma 38 (subcutaneous) in B6D2F1 (BDF1) mice
# Summary of the method: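 Transplantable tumor in mice; compound-treated vs vehicle-dosed controls. Measured survival or tumor size; value = T ÷ C.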
# [1] = endpoint: median tumor weight (est.), dose: 12.5 mg/kg/injection, schedule: Q07DX002 (ip), vehicle: Klucel (hydroxypropylcellulose) (HPC), higher = larger tumour
# [2] = endpoint: median tumor weight (est.), dose: 25.0 mg/kg/injection, schedule: Q07DX002 (ip), vehicle: Klucel (hydroxypropylcellulose) (HPC), higher = larger tumour
# [3] = endpoint: median tumor weight (est.), dose: 50.0 mg/kg/injection, schedule: Q07DX002 (ip), vehicle: Klucel (hydroxypropylcellulose) (HPC), higher = larger tumour
# [4] = endpoint: median tumor weight (est.), dose: 100.0 mg/kg/injection, schedule: Q07DX002 (ip), vehicle: Klucel (hydroxypropylcellulose) (HPC), higher = larger tumour
smiles,measurement,setting,value
CCC(c1ccc(OC(=O)Cc2ccc(N(CCCl)CCCl)cc2)cc1)C(CC)c1ccc(OC(=O)Cc2ccc(N(CCCl)CCCl)cc2)cc1 (configuration not stated),T/C,"endpoint: median tumor weight (est.), dose: 9.38 mg/kg/injection, schedule: Q07DX002 (ip), vehicle: saline with Tween-80, higher = larger tumour",120 % of control
same,T/C,"endpoint: median tumor weight (est.), dose: 18.7 mg/kg/injection, schedule: Q07DX002 (ip), vehicle: saline with Tween-80, higher = larger tumour",92 % of control
same,T/C,"endpoint: median tumor weight (est.), dose: 37.5 mg/kg/injection, schedule: Q07DX002 (ip), vehicle: saline with Tween-80, higher = larger tumour",33 % of control
same,T/C,"endpoint: median tumor weight (est.), dose: 75.0 mg/kg/injection, schedule: Q07DX002 (ip), vehicle: saline with Tween-80, higher = larger tumour",46 % of control
same,T/C,"endpoint: median tumor weight (est.), dose: 300.0 mg/kg/injection, schedule: Q07DX002 (ip), vehicle: saline with Tween-80, higher = larger tumour",51 % of control and 61 % of control
same,T/C,"endpoint: median tumor weight (est.), dose: 600.0 mg/kg/injection, schedule: Q07DX002 (ip), vehicle: saline with Tween-80, higher = larger tumour",51 % of control and 61 % of control
COc1cc(C(=O)c2cc3c(cc2C)OCO3)cc(OC)c1OC,T/C,[1],77 % of control
same,T/C,[2],75 % of control and 84 % of control
same,T/C,[3],112 % of control and 95 % of control
same,T/C,"endpoint: median tumor weight (est.), dose: 200.0 mg/kg/injection, schedule: Q07DX002 (ip), vehicle: Klucel (hydroxypropylcellulose) (HPC), higher = larger tumour",79 % of control and 102 % of control
COc1cc2cc3c4cc(OC)c(OC)cc4cc[n+]3c(C)c2cc1OC (tested in a mixture with another compound),T/C,"endpoint: median tumor weight (est.), dose: 50.0 mg/kg/injection, schedule: Q07DX003 (ip), vehicle: saline, higher = larger tumour",164 % of control
same,T/C,"endpoint: median tumor weight (est.), dose: 100.0 mg/kg/injection, schedule: Q07DX003 (ip), vehicle: saline, higher = larger tumour",77 % of control and 96 % of control
same,T/C,"endpoint: median tumor weight (est.), dose: 400.0 mg/kg/injection, schedule: Q07DX003 (ip), vehicle: saline, higher = larger tumour",53 % of control
O=C(O)Cc1cccc2c(=O)cc(-c3ccccc3)oc12,T/C,"endpoint: median tumor weight (est.), dose: 47.3 mg/kg/injection, schedule: Q03HX004 (ip), vehicle: clinical formulation, higher = larger tumour",124 % of control
same,T/C,[3],79 % of control
same,T/C,"endpoint: median tumor weight (est.), dose: 50.0 mg/kg/injection, schedule: Q07DX002 (ip), vehicle: sodium bicarbonate, higher = larger tumour",46 % of control
same,T/C,"endpoint: median tumor weight (est.), dose: 63.0 mg/kg/injection, schedule: Q03HX004 (ip), vehicle: clinical formulation, higher = larger tumour",89 % of control
same,T/C,"endpoint: median tumor weight (est.), dose: 63.0 mg/kg/injection, schedule: Q07DX002 (ip), vehicle: sodium bicarbonate, higher = larger tumour",70 % of control
same,T/C,"endpoint: median tumor weight (est.), dose: 63.0 mg/kg/injection, schedule: Q07DX002 (iv), vehicle: sodium bicarbonate, higher = larger tumour",120 % of control
same,T/C,"endpoint: median tumor weight (est.), dose: 84.0 mg/kg/injection, schedule: Q03HX004 (ip), vehicle: clinical formulation, higher = larger tumour",19 % of control
same,T/C,"endpoint: median tumor weight (est.), dose: 84.0 mg/kg/injection, schedule: Q06HX002 (ip), vehicle: clinical formulation, higher = larger tumour",80 % of control
same,T/C,"endpoint: median tumor weight (est.), dose: 84.0 mg/kg/injection, schedule: Q07DX002 (ip), vehicle: saline, higher = larger tumour",103 % of control
same,T/C,"endpoint: median tumor weight (est.), dose: 84.0 mg/kg/injection, schedule: Q07DX002 (ip), vehicle: sodium bicarbonate, higher = larger tumour",46 % of control
same,T/C,"endpoint: median tumor weight (est.), dose: 84.0 mg/kg/injection, schedule: Q07DX002 (iv), vehicle: sodium bicarbonate, higher = larger tumour",122 % of control
same,T/C,[4],4 % of control
same,T/C,"endpoint: median tumor weight (est.), dose: 100.0 mg/kg/injection, schedule: Q07DX002 (ip), vehicle: sodium bicarbonate, higher = larger tumour",73 % of control
same,T/C,"endpoint: median tumor weight (est.), dose: 112.0 mg/kg/injection, schedule: Q01DX001 (ip), vehicle: clinical formulation, higher = larger tumour",72 % of control
same,T/C,"endpoint: median tumor weight (est.), dose: 112.0 mg/kg/injection, schedule: Q06HX002 (ip), vehicle: clinical formulation, higher = larger tumour",29 % of control
same,T/C,"endpoint: median tumor weight (est.), dose: 112.0 mg/kg/injection, schedule: Q07DX002 (ip), vehicle: clinical formulation, higher = larger tumour",44 % of control
same,T/C,"endpoint: median tumor weight (est.), dose: 112.0 mg/kg/injection, schedule: Q07DX002 (ip), vehicle: saline, higher = larger tumour",13 % of control
same,T/C,"endpoint: median tumor weight (est.), dose: 112.0 mg/kg/injection, schedule: Q07DX002 (ip), vehicle: sodium bicarbonate, higher = larger tumour",90 % of control
same,T/C,"endpoint: median tumor weight (est.), dose: 112.0 mg/kg/injection, schedule: Q07DX002 (iv), vehicle: sodium bicarbonate, higher = larger tumour",100 % of control
same,T/C,"endpoint: median tumor weight (est.), dose: 150.0 mg/kg/injection, schedule: Q01DX001 (ip), vehicle: clinical formulation, higher = larger tumour",22 % of control
same,T/C,"endpoint: median tumor weight (est.), dose: 150.0 mg/kg/injection, schedule: Q07DX002 (ip), vehicle: saline, higher = larger tumour",2 % of control
same,T/C,"endpoint: median tumor weight (est.), dose: 150.0 mg/kg/injection, schedule: Q07DX002 (ip), vehicle: sodium bicarbonate, higher = larger tumour",67 % of control
same,T/C,"endpoint: median tumor weight (est.), dose: 150.0 mg/kg/injection, schedule: Q07DX002 (iv), vehicle: sodium bicarbonate, higher = larger tumour",15 % of control
same,T/C,"endpoint: median tumor weight (est.), dose: 200.0 mg/kg/injection, schedule: Q07DX002 (ip), vehicle: sodium bicarbonate, higher = larger tumour",42 % of control
same,T/C,"endpoint: median tumor weight (est.), dose: 267.0 mg/kg/injection, schedule: Q07DX002 (ip), vehicle: saline, higher = larger tumour",1 % of control
CN(C)N=Nc1ccccc1,T/C,[1],80 % of control and 86 % of control
same,T/C,[2],42 % of control and 49 % of control
same,T/C,[4],24 % of control and 27 % of control
C[n+]1ccc(Nc2ccc(NC(=O)c3ccc(Nc4cc[n+](C)c5ccc(N)cc45)cc3)cc2)cc1,T/C,"endpoint: median tumor weight (est.), dose: 0.5 mg/kg/injection, schedule: Q07DX002 (ip), vehicle: water, higher = larger tumour",99 % of control
same,T/C,"endpoint: median tumor weight (est.), dose: 1.0 mg/kg/injection, schedule: Q07DX002 (ip), vehicle: water, higher = larger tumour",86 % of control
same,T/C,"endpoint: median tumor weight (est.), dose: 2.0 mg/kg/injection, schedule: Q07DX002 (ip), vehicle: water, higher = larger tumour",93 % of control
CC(=O)N(C)C,T/C,"endpoint: median tumor weight (est.), dose: 225.0 mg/kg/injection, schedule: Q07DX002 (ip), vehicle: saline, higher = larger tumour",123 % of control
same,T/C,"endpoint: median tumor weight (est.), dose: 900.0 mg/kg/injection, schedule: Q07DX002 (ip), vehicle: saline, higher = larger tumour",111 % of control and 100 % of control
same,T/C,"endpoint: median tumor weight (est.), dose: 1800.0 mg/kg/injection, schedule: Q07DX002 (ip), vehicle: saline, higher = larger tumour",62 % of control and 84 % of control
same,T/C,"endpoint: median tumor weight (est.), dose: 3600.0 mg/kg/injection, schedule: Q07DX002 (ip), vehicle: saline, higher = larger tumour",46 % of control and 65 % of control
NC(C/[N+]([O-])=N/O)C(=O)O (configuration not stated),T/C,"endpoint: median survival time, dose: 52.7 mg/kg/injection, schedule: Q04DX005 (ip), vehicle: alkali diluted with saline, higher = longer survival",109 % of control
same,T/C,"endpoint: median survival time, dose: 79.0 mg/kg/injection, schedule: Q04DX005 (ip), vehicle: alkali diluted with saline, higher = longer survival",86 % of control and 88 % of control
same,T/C,"endpoint: median survival time, dose: 119.0 mg/kg/injection, schedule: Q04DX005 (ip), vehicle: alkali diluted with saline, higher = longer survival",109 % of control and 116 % of control
same,T/C,"endpoint: median survival time, dose: 178.0 mg/kg/injection, schedule: Q04DX005 (ip), vehicle: alkali diluted with saline, higher = longer survival",100 % of control and 102 % of control
same,T/C,"endpoint: median survival time, dose: 267.0 mg/kg/injection, schedule: Q04DX005 (ip), vehicle: alkali diluted with saline, higher = longer survival",93 % of control and 94 % of control
same,T/C,"endpoint: median survival time, dose: 400.0 mg/kg/injection, schedule: Q04DX005 (ip), vehicle: alkali diluted with saline, higher = longer survival",95 % of control
same,T/C,"endpoint: median survival time, dose: 600.0 mg/kg/injection, schedule: Q04DX005 (ip), vehicle: alkali diluted with saline, higher = longer survival",79 % of control
same,T/C,"endpoint: median tumor weight (est.), dose: 32.0 mg/kg/injection, schedule: Q07DX003 (ip), vehicle: saline, higher = larger tumour",108 % of control
same,T/C,"endpoint: median tumor weight (est.), dose: 64.0 mg/kg/injection, schedule: Q07DX003 (ip), vehicle: saline, higher = larger tumour",70 % of control
same,T/C,"endpoint: median tumor weight (est.), dose: 128.0 mg/kg/injection, schedule: Q07DX003 (ip), vehicle: saline, higher = larger tumour",92 % of control
same,T/C,"endpoint: median tumor weight (est.), dose: 256.0 mg/kg/injection, schedule: Q07DX003 (ip), vehicle: saline, higher = larger tumour",100 % of control
same,T/C,"endpoint: median tumor weight (est.), dose: 512.0 mg/kg/injection, schedule: Q07DX003 (ip), vehicle: saline, higher = larger tumour",56 % of control
same,T/C,"endpoint: median tumor weight (est.), dose: 1024.0 mg/kg/injection, schedule: Q07DX003 (ip), vehicle: saline, higher = larger tumour",72 % of control
N#CC(OC1OC(COC2OC(CO)C(O)C(O)C2O)C(O)C(O)C1O)c1ccccc1 (configuration not stated),T/C,"endpoint: median tumor weight (est.), dose: 50.0 mg/kg/injection, schedule: Q07DX002 (ip), vehicle: water, higher = larger tumour",98 % of control
same,T/C,"endpoint: median tumor weight (est.), dose: 100.0 mg/kg/injection, schedule: Q07DX002 (ip), vehicle: water, higher = larger tumour",87 % of control
same,T/C,"endpoint: median tumor weight (est.), dose: 200.0 mg/kg/injection, schedule: Q07DX002 (ip), vehicle: water, higher = larger tumour",112 % of control
same,T/C,"endpoint: median tumor weight (est.), dose: 400.0 mg/kg/injection, schedule: Q07DX002 (ip), vehicle: water, higher = larger tumour",102 % of control
same,T/C,"endpoint: median tumor weight (est.), dose: 1600.0 mg/kg/injection, schedule: Q07DX002 (ip), vehicle: water, higher = larger tumour",91 % of control
CN(C)c1ccc(C(=C2C=CC(=[N+](C)C)C=C2)c2ccc(N(C)C)cc2)cc1 (tested in a mixture with another compound),T/C,"endpoint: median tumor weight (est.), dose: 0.62 mg/kg/injection, schedule: Q07DX002 (ip), vehicle: saline with Tween-80, higher = larger tumour",61 % of control
same,T/C,"endpoint: median tumor weight (est.), dose: 2.5 mg/kg/injection, schedule: Q07DX002 (ip), vehicle: saline with Tween-80, higher = larger tumour",71 % of control
CC(=O)C1=C(O)C2(O)C(=O)c3c(c(C)c4ccc(C)c(O)c4c3O)CC2C(N)C1=O (configuration not stated),T/C,"endpoint: median tumor weight (est.), dose: 7.5 mg/kg/injection, schedule: Q07DX002 (ip), vehicle: saline + alcohol, higher = larger tumour",79 % of control and 95 % of control
same,T/C,"endpoint: median tumor weight (est.), dose: 15.0 mg/kg/injection, schedule: Q07DX002 (ip), vehicle: saline + alcohol, higher = larger tumour",87 % of control and 106 % of control
same,T/C,"endpoint: median tumor weight (est.), dose: 60.0 mg/kg/injection, schedule: Q07DX002 (ip), vehicle: saline + alcohol, higher = larger tumour",95 % of control and 107 % of control
same,T/C,"endpoint: median tumor weight (est.), dose: 120.0 mg/kg/injection, schedule: Q07DX002 (ip), vehicle: saline + alcohol, higher = larger tumour",87 % of control
